Consider 3 molecules from US20120245176A1, “NOVEL […] WITH S[…] AS BROAD-[…] INFLUENZA ANTIVIRALS” (priority 2010, published 2012).

In one data set the test system is A/H5N1/Duck_PA. As to the kind of experiment: microbe, parasite or virus in culture. In kind it is cell-based, influenza virus. Conditions: read-out: A/H5N1/Duck_PA EC50.
A further data set has as its system A/H1N1/Solomon Islands. The data set is described as follows: Antiviral assay in MDCK cells, viral neuraminidase (MUNANA) readout, A/H1N1/Solomon Islands. The settings on record: MOI 0.001, 48 hrs post infection, viral NA activity. In kind it is cell-based, influenza A.
The subject of the next data set is A/H3N2 Brisbane. The data set is described as follows: Antiviral assay in MDCK cells, viral neuraminidase (MUNANA) readout, A/H3N2 Brisbane. Conditions: MOI 0.001, 48 hrs post infection, viral NA activity. Type of data set: cell-based, influenza A.
Data set [1] in a line: Human Liver Microsomal Stability. Conditions: human liver microsomes. In general terms: Microsomes from liver hold many membrane-bound enzymes, among them those of drug oxidation.
Another data set concerns A/H1N1/WSN. The data set is described as follows: Antiviral assay in MDCK cells, viral neuraminidase (MUNANA) readout, A/H1N1/WSN. In kind it is cell-based, influenza A. Conditions: MOI 0.001, 48 hrs post infection, viral NA activity.
The next data set has as its system A/H5N1/Gull_PA. The data set is described as follows: microbe, parasite or virus in culture. Type of data set: cell-based, influenza virus. The settings on record: read-out: A/H5N1/Gull_PA EC50.
Data set [2] can be described thus: Mouse Liver Microsomal Stability. The settings on record: mouse liver microsomes.
A further data set has as its system A/H5N1/Duck_MN. As to the kind of experiment: microbe, parasite or virus in culture. The settings on record: read-out: A/H5N1/Duck_MN EC50. In kind it is cell-based, influenza virus.

As to `Cc1nnn(-c2ccccc2Cl)c1C(=O)N1CCN(c2ccc([N+](=O)[O-])cc2Cl)CC1` [Example 88], the EC50 in the data set with A/H5N1/Duck_PA is under 10 µM; in the data set with A/H1N1/Solomon Islands, under 10 µM; with A/H3N2 Brisbane, over 10 µM; in the data set with A/H1N1/WSN it was under 1 µM; in the data set on A/H5N1/Gull_PA it was under 1 µM; with A/H5N1/Duck_MN it was under 10 µM. In data set [1], the “Human Liver Microsomal Stability (% Remaining after 10 minutes)” value was determined as 47%. For the same molecule, in data set [2], the “Mouse Liver Microsomal Stability (% Remaining after 10 minutes)” value came out at 23%.

For the molecule `Cc1onc(-c2cccnc2Cl)c1C(=O)N1CCN(c2ccc([N+](=O)[O-])cc2Cl)CC1` [Example 61], the EC50 with A/H5N1/Duck_PA is under 1 µM; with A/H1N1/Solomon Islands, under 10 µM; in the data set with A/H3N2 Brisbane it was over 10 µM; in the data set with A/H1N1/WSN it was under 0.1 µM; with A/H5N1/Gull_PA it was under 1 µM; in the data set on A/H5N1/Duck_MN, under 1 µM. In data set [1], the “Human Liver Microsomal Stability (% Remaining after 10 minutes)” value is 50%. For the same molecule, the “Mouse Liver Microsomal Stability (% Remaining after 10 minutes)” value in data set [2] turned out to be 18%.

Consider `COc1ccccc1-c1ncn(C)c1C(=O)N1CCN(c2ccc([N+](=O)[O-])cc2Cl)CC1` [Example 82], for which the EC50 is under 10 µM in the data set with A/H5N1/Duck_PA; over 10 µM in the data set on A/H1N1/Solomon Islands; over 10 µM in the data set with A/H3N2 Brisbane; under 1 µM in the data set on A/H1N1/WSN; under 1 µM with A/H5N1/Gull_PA; under 10 µM with A/H5N1/Duck_MN. The “Human Liver Microsomal Stability (% Remaining after 10 minutes)” value in data set [1] was 45%. Also, in data set [2], the “Mouse Liver Microsomal Stability (% Remaining after 10 minutes)” value is listed as 43%.
